System: MCF-7 breast cancer cells
Experiment: Microarray gene expression analysis (Agilent whole human genome 4 x 44K; compound vs DMSO, LIMMA log2 fold change)
Assay type: cell-based
Details: cell cycle genes

SMILES: Cn1ncc2c(N3CCOCC3)nc(-c3cccc(O)c3)nc21 [ETP-45658]
- MLF1 log2FC (Gene 4291): 0.627
- MLH1 log2FC (Gene 4292): 0.538
- MAP3K11 log2FC (Gene 4296): -0.949
- MNAT1 log2FC (Gene 4331): 0.729
- MNT log2FC (Gene 4335): 1.624
- MOS log2FC (Gene 4342): -0.164
- MRE11A log2FC (Gene 4361): 0.332
- MSH2 log2FC (Gene 4436): 0.939
- MSH3 log2FC (Gene 4437): 0.739
- MSH4 log2FC (Gene 4438): -0.048
- MSX1 log2FC (Gene 4487): -0.324
- MSX2 log2FC (Gene 4488): 0.054
- MUC1 log2FC (Gene 4582): -0.901
- TRIM37 log2FC (Gene 4591): 0.868
- MX2 log2FC (Gene 4600): -0.054
- MYB log2FC (Gene 4602): 0.452
- MYBL2 log2FC (Gene 4605): -0.545
- MYC log2FC (Gene 4609): 0.554
- GADD45B log2FC (Gene 4616): 0.642
- MYH9 log2FC (Gene 4627): -0.364
- MYH10 log2FC (Gene 4628): -0.039
- PPP1R12A log2FC (Gene 4659): 0.489
- PPP1R12B log2FC (Gene 4660): 0.389
- NUBP1 log2FC (Gene 4682): -0.227
- NBN log2FC (Gene 4683): 0.839
- NEDD9 log2FC (Gene 4739): -0.017
- NEK1 log2FC (Gene 4750): 0.621
- NEK2 log2FC (Gene 4751): 0.969
- NEUROD1 log2FC (Gene 4760): -0.043
- NGFR log2FC (Gene 4804): -0.063
- NOTCH2 log2FC (Gene 4853): 0.166
- NPAT log2FC (Gene 4863): 0.585
- NPM1 log2FC (Gene 4869): 0.586
- NUP88 log2FC (Gene 4927): 0.539
- ODF2 log2FC (Gene 4957): -0.215
- OSM log2FC (Gene 5008): 0.056
- OVOL1 log2FC (Gene 5017): -0.043
- PAFAH1B1 log2FC (Gene 5048): 0.720
- PAK1 log2FC (Gene 5058): 0.117
- PAK3 log2FC (Gene 5063): 0.230
- PCM1 log2FC (Gene 5108): 0.687
- PCNT log2FC (Gene 5116): 0.317
- PDGFB log2FC (Gene 5155): -0.598
- PDGFRB log2FC (Gene 5159): 0.022
- PGGT1B log2FC (Gene 5229): -0.232
- ABCB1 log2FC (Gene 5243): -0.025
- PIK3C3 log2FC (Gene 5289): 1.044
- PIM1 log2FC (Gene 5292): 1.131
- PIN1 log2FC (Gene 5300): -0.195
- PKD1 log2FC (Gene 5310): 0.265
- PKD2 log2FC (Gene 5311): 0.346
- PKHD1 log2FC (Gene 5314): -0.057
- PLAGL1 log2FC (Gene 5325): 0.310
- PML log2FC (Gene 5371): -0.804
- PMS1 log2FC (Gene 5378): 0.682
- PMS2 log2FC (Gene 5395): 0.442
- POLD1 log2FC (Gene 5424): 0.148
- POLE log2FC (Gene 5426): -0.223
- PPAT log2FC (Gene 5471): 0.243
- PPM1A log2FC (Gene 5494): 0.474
- PPP1CB log2FC (Gene 5500): 1.012
- PPP1CC log2FC (Gene 5501): 0.572
- PPP2R1A log2FC (Gene 5518): -0.055
- PPP2R2A log2FC (Gene 5520): 0.059
- PPP2R4 log2FC (Gene 5524): -0.446
- PPP2R5C log2FC (Gene 5527): 0.888
- PPP3CA log2FC (Gene 5530): 0.422
- PPP5C log2FC (Gene 5536): -0.138
- PPP6C log2FC (Gene 5537): -0.352
- PRCC log2FC (Gene 5546): -0.798
- PRIM1 log2FC (Gene 5557): 0.636
- PRKAA1 log2FC (Gene 5562): 0.429
- PRKAA2 log2FC (Gene 5563): 0.082
- PRKAB1 log2FC (Gene 5564): 0.427
- PRKAB2 log2FC (Gene 5565): 1.177
- PRKACA log2FC (Gene 5566): -0.596
- PKIA log2FC (Gene 5569): -0.378
- PRKAG1 log2FC (Gene 5571): 0.238
- PRKAR1A log2FC (Gene 5573): 0.532
- PRKAR2B log2FC (Gene 5577): 0.565
- PRKCA log2FC (Gene 5578): -0.217
- PRKCD log2FC (Gene 5580): -0.079
- PRKCE log2FC (Gene 5581): -0.042
- PKN2 log2FC (Gene 5586): 0.510
- MAPK1 log2FC (Gene 5594): -0.045
- MAPK3 log2FC (Gene 5595): -0.190
- MAPK13 log2FC (Gene 5603): -0.354
- MAP2K1 log2FC (Gene 5604): -0.107
- MAP2K6 log2FC (Gene 5608): 0.116
- PROX1 log2FC (Gene 5629): 0.206
- KLK10 log2FC (Gene 5655): -0.446
- PSMA1 log2FC (Gene 5682): 0.045
- PSMA4 log2FC (Gene 5685): 0.609
- PSMA6 log2FC (Gene 5687): 0.200
- PSMB1 log2FC (Gene 5689): 0.085
- PSMB2 log2FC (Gene 5690): -0.547
- PSMB3 log2FC (Gene 5691): -0.030
- PSMB5 log2FC (Gene 5693): -0.298
- PSMB6 log2FC (Gene 5694): -0.120
- PSMB8 log2FC (Gene 5696): -0.045
- PSMC1 log2FC (Gene 5700): 0.172
- PSMC2 log2FC (Gene 5701): 0.576
- PSMC5 log2FC (Gene 5705): -0.327
- PSMC6 log2FC (Gene 5706): 0.776
- PSMD2 log2FC (Gene 5708): 0.090
- PSMD3 log2FC (Gene 5709): -0.109
- PSMD4 log2FC (Gene 5710): -0.086
- PSMD5 log2FC (Gene 5711): 0.388
- PSMD7 log2FC (Gene 5713): 0.182
- PSMD9 log2FC (Gene 5715): -0.171
- PSMD12 log2FC (Gene 5718): -0.582
- PSMD13 log2FC (Gene 5719): -0.031
- PSME2 log2FC (Gene 5721): 0.039
- PTEN log2FC (Gene 5728): 1.014
- PTGS2 log2FC (Gene 5743): -0.151
- PTPN3 log2FC (Gene 5774): -0.174
- PTPN6 log2FC (Gene 5777): 0.120
- PTPRC log2FC (Gene 5788): -0.053
- PTPRK log2FC (Gene 5796): 0.583
- RAD1 log2FC (Gene 5810): -0.104
- RAD9A log2FC (Gene 5883): 0.686
- RAD17 log2FC (Gene 5884): 1.203
- RAD21 log2FC (Gene 5885): 1.043
- RAD51 log2FC (Gene 5888): -0.360
- RAD52 log2FC (Gene 5893): 0.105
- RAN log2FC (Gene 5901): 0.119
- RANBP1 log2FC (Gene 5902): -0.137
- RANBP2 log2FC (Gene 5903): 0.605
- RARA log2FC (Gene 5914): -0.580
- RASA1 log2FC (Gene 5921): 0.488
- RB1 log2FC (Gene 5925): 0.746
- RBL2 log2FC (Gene 5934): 0.480
- RFC1 log2FC (Gene 5981): 1.105
- RFC2 log2FC (Gene 5982): 0.117
- RFC5 log2FC (Gene 5985): 0.243
- RGS2 log2FC (Gene 5997): -2.314
- RHEB log2FC (Gene 6009): 0.421
- RNF2 log2FC (Gene 6045): -0.048
- RNF4 log2FC (Gene 6047): -0.426
- RPA3 log2FC (Gene 6119): 0.162
- RPS6KA2 log2FC (Gene 6196): 0.035
- RPS6KA3 log2FC (Gene 6197): 0.412
- RPS15A log2FC (Gene 6210): 0.277
- RPS27 log2FC (Gene 6232): 0.416
- RPS27A log2FC (Gene 6233): 0.401
- RRM1 log2FC (Gene 6240): 0.612
- RRM2 log2FC (Gene 6241): -0.808
- SETMAR log2FC (Gene 6419): -0.171
- SIAH2 log2FC (Gene 6478): -0.579
- SKP2 log2FC (Gene 6502): -1.072
- SMARCA4 log2FC (Gene 6597): -0.352
- SOX2 log2FC (Gene 6657): 0.298
- SOX9 log2FC (Gene 6662): -2.381
- SPAST log2FC (Gene 6683): 0.519
- SPTBN1 log2FC (Gene 6711): 0.111
- SRPK2 log2FC (Gene 6733): 0.850
- TRIM21 log2FC (Gene 6737): -0.066

From article PMC4303209, “A novel phosphatidylinositol 3-kinase (PI3K) inhibitor directs a potent FOXO-dependent, p53-independent cell cycle arrest phenotype characterized by the differential induction of a subset of FOXO-regulated genes” (Breast Cancer Research : BCR, 2014)
